Laboratory results: paper PMC9841532, “Exploring the Effect of Halogenation in a Series of Potent and Selective A2B Adenosine Receptor Antagonists” (Journal of Medicinal Chemistry, 2022)
Values after ≈ are worked out from the molar mass of the structure shown. Like-named read-outs stand apart in the source and are kept apart here.

Assays:
[1] = target: T1, A2BAR (Homo sapiens, UniProt P29275); assay: cAMP accumulation assay in HEK-293 cells permanently expressing A2BAR-SNAP; format: cell-based; conditions: read-out: KB (hA2B)
T1 construct: expressed in transfected cells; host or cells: HEK-293 T cells permanently expressing pRK5-A2BAR^SNAP
T1 sequence (P29275 1-332): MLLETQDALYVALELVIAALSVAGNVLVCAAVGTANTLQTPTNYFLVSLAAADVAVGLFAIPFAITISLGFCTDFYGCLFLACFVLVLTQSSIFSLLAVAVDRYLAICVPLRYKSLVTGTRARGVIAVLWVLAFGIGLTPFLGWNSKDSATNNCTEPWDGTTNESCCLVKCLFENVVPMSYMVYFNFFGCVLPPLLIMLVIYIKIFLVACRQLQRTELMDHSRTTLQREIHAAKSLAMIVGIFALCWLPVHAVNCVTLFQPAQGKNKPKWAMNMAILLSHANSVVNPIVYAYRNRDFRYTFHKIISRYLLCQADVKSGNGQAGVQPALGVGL
Protocol: To assess their ability to block A2BAR agonist intrinsic activity, the effect on A2BAR-mediated cAMP accumulation and cellular impedance was evaluated. To this end, we used HEK-293 cells permanently expressing the A2BAR^SNAP construct, which can be visualized upon staining the cells with a SNAP-fluorescent substrate.
Scale bar: […]. […] Data are expressed as mean ± SEM (n = 4).
cAMP accumulation was measured using the LANCE Ultra cAMP kit (PerkinElmer, Waltham, Massachusetts, USA) as previously described.[55] […] The 384-well plate was incubated 1 h at 22 °C in the dark and was then read on a CLARIOstar Microplate Reader (BMG Labtech, Durham, North Carolina, USA). […] Data were fitted by non-linear regression using GraphPad Prism 9 (San Diego, California, USA).

[2] = target: T2, hA2BAR (Homo sapiens, UniProt P29275); assay: Radioligand binding competition, [3H]DPCPX, membranes from HEK-293-A2B cells; design: Exp. dG: unit not given here; conditions: for Ki: read-out: Ki hA2B; for Exp. dG: experimental binding free energy, Supplementary Table S3, unit not given (errors in kcal/mol)
T2 construct: host or cells: HEK-293 (HEK-293-A2B) cell membranes
T2 sequence (P29275 1-332): T1 sequence (P29275 1-332)
Outline: (§1)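 Racemates, plus selected enantiomers after chiral resolution, were tested at 25 °C, with a 60 min incubation for one subtype and 30 min for others. Non-specific binding was defined with 10 μM or 100 μM R-PIA. Bound radioactivity was counted after washing and filtration.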

[3] = target: T3, hA1AR (Homo sapiens, UniProt P30542); assay: Radioligand binding competition, [3H]DPCPX, membranes from CHO-A1 cells; conditions: 1 μM, [3H]DPCPX, human CHO cells, n = 2
T3 sequence (P30542 1-326): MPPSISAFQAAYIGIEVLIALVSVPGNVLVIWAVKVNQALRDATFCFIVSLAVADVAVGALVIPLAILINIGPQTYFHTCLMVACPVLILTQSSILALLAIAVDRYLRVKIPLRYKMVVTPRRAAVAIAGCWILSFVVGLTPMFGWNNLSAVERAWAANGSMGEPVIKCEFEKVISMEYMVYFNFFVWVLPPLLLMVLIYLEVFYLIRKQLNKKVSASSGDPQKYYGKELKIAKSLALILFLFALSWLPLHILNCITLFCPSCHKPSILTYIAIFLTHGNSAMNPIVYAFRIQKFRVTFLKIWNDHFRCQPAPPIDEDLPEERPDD
Outline: as §1

[4] = Human microsomal stability; format: in vitro ADME; conditions: human microsomes; for microsomal stability percent (percentage remanent): sampling time 60 min; for microsomal CLint at 1 h / half-life at 1 h: human, pH 7.4; for microsomal CLint at 1 h: read-out: microsomal stability Clint (intrinsic clearance); for half-life at 1 h: read-out: microsomal stability t1/2
Protocol: The human microsomal stability of selected compounds was evaluated by following a previously described method.[31] The human microsomes employed were purchased from Tebu-Xenotech. The compound was incubated with the microsomes at 37 °C in a 50 mM phosphate buffer (pH = 7.4) containing 3 mM MgCl2, 1 mM NADP, 10 mM glucose-6-phosphate, and 1 U/mL glucose-6-phosphate-dehydrogenase. Samples (75 μL) were taken from each well at 0, 10, 20, 40, and 60 min and transferred to a plate containing 4 °C 75 μL acetonitrile and 30 μL of 0.5% formic acid in water was added for improving the chromatographic conditions. The plate was centrifuged (46,000 g, 30 min), and supernatants were taken and analyzed in a UPLC-MS/MS (Xevo TQD, Waters) by employing a BEH C18 column and an isocratic gradient of 0.1% formic acid in water:0.1% formic acid acetonitrile (60:40). The metabolic stability of the compounds was calculated from the logarithm of the remaining compounds at each of the time point studied.

[5] = Solubility determination (nephelometry); format: physicochemical; conditions: 1:99 DMSO/PSB buffer, PBS pH 7, 37 °C
Protocol: The solubility of selected compounds was evaluated by following a previously described method.[31] A 10 mM stock solution of the compound was serially diluted in 100% DMSO, and 2.5 μL of this solution was added to a 384-well UV-transparent plate (Greiner) containing 47.5 μL of PBS (pH = 7). The plate was incubated at 37 °C for 4 h, and the light scattering was measured in a NEPHELOstar Plus reader (BMG LABTECH). The data was fitted to a segmented linear regression for measuring the compound solubility.

[6] = displacement of specific [3H]DPCPX binding in human HEK-293 cells, n = 3

Row | Kb [1] | Ki [2, 6] | Ki [2] | % at 1 μM hA1 (percentage displacement of specific binding) [3] | microsomal stability percent (percentage remanent) [4] | microsomal CLint at 1 h [4] | half-life at 1 h [4] | solubility at 4 h [5] | Exp. dG [2] | SMILES
1 | 1.7 ± 0.6 nM | 5.23 ± 0.4 nM | < 10 nM | 25% | 32.13% | 14.2 µL/min/mg | 36.8 min | 70.7 µM (≈ 29.4 µg/mL) | – | CC1=C(C(=O)OC(C)C)C(c2ccco2)n2c(nc3cc(Br)ccc32)N1 (centres unmarked) [16r]
2 | 0.8 ± 0.2 nM | 3.05 ± 0.7 nM | < 10 nM | 11% | 19.83% | 20.1 µL/min/mg | 27.4 min | 47.5 µM (≈ 16.9 µg/mL) | -11.61 | CC1=C(C(=O)OC(C)C)C(c2ccco2)n2c(nc3cc(F)ccc32)N1 (centres unmarked) [16b]
3 | 0.6 ± 0.2 nM | 5.03 ± 0.3 nM | < 10 nM | 35% | 22.75% | 18.6 µL/min/mg | 28.1 min | 23.7 µM (≈ 8.81 µg/mL) | -11.31 | CC1=C(C(=O)OC(C)C)C(c2ccco2)n2c(nc3cc(Cl)ccc32)N1 (centres unmarked) [16j]
